Laboratory results as given in patent US20230293560A1, “METHOD FOR MODULATING THE BLADDER MICROBIOME TO IMPROVE BLADDER HEALTH” (Kimberly-Clark Worldwide, Inc., priority 2020, published 2023).
Where “and” joins values, the source holds several entries; their conditions need not be identical. Equal values may be shown once.

What was measured:
[1] = tested on: S. anginosus, KC18-1131-3B, Bladder (Sa-2); format: cell-based; settings: Table 6, prebiotic 2%, one line per replicate
Description: (§1) Further testing was conducted to put the prebiotic compounds in competition assay testing, as further described in the test methods section herein. In the competition assay testing, each competition involved testing a single prebiotic compound with the commensal bacteria species of L. crispatus, KC18-1173-1, Bladder (“Lc-3”—Table 2) against the pathogenic bacterial species of S. anginosus, KC18-1131-3B, Bladder (“Sa-2”—Table 2).
(§2) • 1. An in house bacterial agar was created based on MRS agar (Kaplan and Hutkins, 2000) where the glucose is substituted for the prebiotic to be tested (either dextran MW ˜6,000, alpha-cyclodextrin, glucomannan, or pectin), bromocresol purple was included as a pH indicator. • 2. Bacteria were enumerated on each agar and color changes were recorded. Method for Competition Assay (Modified from “In Vitro Evaluation of Nutrients that Selectively Confer a Competitive Advantage to Lactobacilli” Vongsa et al, Beneficial Microbes 2016) • 1. Create 2% w/v stock of prebiotic or positive control (glucose/dextrose) as described above. • 2. From a freezer stock subculture the bacteria twice into De Man, Rogosa and Sharpe (MRS) broth (BD Difco, Becton Dickinson, Franklin Lakes, NJ), 37° C., stationary, anaerobic, overnight. • 3. From the last subculture, plate onto an MRS agar plate for L. crispatus KC18-1173-1 or blood agar for S. anginosus KC18-1131-3B, grow 37° C., stationary, anaerobic, overnight. • 4. Create a bacterial suspension by using a sterile tipped swab to transfer colonies of bacteria into a PBS suspension blank to a 2 MacFarland for both species. • 5. Enumerate the starting culture. • 6. Add 9.8 mL of prebiotic media into a 15 mL conical tube. • 7. Add 100 μL of the diluted bacteria to the media, incubate at 37° C., anaerobic, 48 hours. • 8. Harvest 100 μL from the tube containing the prebiotic and plate onto MRS agar and tryptic soy agar (TSA). • 9. Enumerate the bacteria on the MRS agar (both the L. crispatus and the S. anginosus). Small colonies are counted as S. anginosus and large colonies are counted as L. crispatus. • 10. Enumerate the bacteria on the TSA plate. […] Growth of the bacteria in the negative control (CHL media without prebiotic) was subtracted from the growth in the presence of the prebiotic or formulation.

[2] = tested on: L. crispatus, KC18-1173-1, Bladder (Lc-3); test: Competition assay, L. crispatus recovered; format: cell-based, Lactobacillus crispatus; settings: Table 6, prebiotic 2%, one line per replicate
Description: as §1, §2

[3] = change vs start, background growth in CHL media subtracted, MRS agar

Question: `CO[C@H]1O[C@H](CO)[C@@H](O)[C@H](O)[C@H]1O` [Alpha-Methyl-D-Glucoside] was tested. Which “Sa-2 MRS Δ” value [1, 3] did it give?
Answer: 0.45 Log CFU/mL and 0.55 Log CFU/mL

Question: What about the “Sa-2 TSA Δ” value ([1]; change vs start, background growth in CHL media subtracted, TSA) of the same compound?
Answer: 0.62 Log CFU/mL and 0.41 Log CFU/mL

Question: And the “Sa-2 MRS end” value ([1]; competition Sa-2 vs Lc-3, 48 hours, anaerobic, enumerated on MRS agar)?
Answer: 7.15 Log CFU/mL and 7.40 Log CFU/mL

Question: And the “Sa-2 TSA end” value ([1]; competition Sa-2 vs Lc-3, 48 hours, enumerated on TSA)?
Answer: 7.47 Log CFU/mL and 7.54 Log CFU/mL

Question: And the “Lc-3 MRS Δ” value [2, 3]?
Answer: 1.39 Log CFU/mL and 0.70 Log CFU/mL

Question: What about the “Lc-3 MRS end” value ([2]; competition Sa-2 vs Lc-3, 48 hours, enumerated on MRS agar) of the same compound?
Answer: 6.52 Log CFU/mL and 6.78 Log CFU/mL
